# Numbers after ± are expanded uncertainties.
# Conditions: Liquid
SMILES,vapor or sublimation pressure (253.15 K),vapor or sublimation pressure (263.15 K),vapor or sublimation pressure (273.15 K),vapor or sublimation pressure (283.15 K),vapor or sublimation pressure (293.15 K),vapor or sublimation pressure (303.15 K),vapor or sublimation pressure (313.15 K),vapor or sublimation pressure (323.15 K)
O=C=O [carbon dioxide],1964.8 ± 49 kPa,2641.8 ± 66 kPa,3478.5 ± 86 kPa,4497.8 ± 110 kPa,5723.7 ± 140 kPa,7206.2 ± 180 kPa,,
CCC [propane],244.2 ± 6.2 kPa,344.7 ± 8.7 kPa,473.9 ± 12 kPa,636.3 ± 16 kPa,836.3 ± 21 kPa,1079.6 ± 27 kPa,1369.8 ± 34 kPa,1714.5 ± 43 kPa
